The test system of data set [1] is A2780 cells. Put plainly: MTT cytotoxicity assay, A2780 cells. To be noted: for Combination index (CI), carboplatin + CBD: A2780, 100 nM CBD. The method, then:
(§1) In separate experiments, cells were seeded in 96‐well plates and after 24 h elapsed they were exposed to different concentrations of drugs or vehicle. Cells were then left in the incubator for a further 24 or 48 h. Then the media was replaced with fresh media containing no drug and the cells were left in the incubator. MTT assay was performed after 96 h elapsed from the time when cells were exposed to drugs or vehicle.
(§2) The cells were then left in the incubator and MTT assay was performed 96 h following the initial exposure to the drugs.
(§3) The selective index (SI) is the ratio of mean IC50 values for non‐cancer cells to cancer cells. […] While the isobologram can be considered predominantly as a graphical depiction of drug interactions, the combination index (CI) is a quantitative representation. It relates the actual drug concentration in the combination to the concentration of the single drug that achieves the same effect. […] Here, CI analysis was used to investigate combinations at 50% cytotoxicity. To this end the IC50 of the viability dose–response curves were determined by non‐linear regression curve fit analysis (GraphPad Prism, v5.00).
(§4) CIA+B is the combination index of A and B; C A the concentration of A applied in combination; C B the concentration of B applied in combination; IC50 A the IC50 of drug A when it was applied individually to the cells; IC50 B = IC50 of drug B when it was applied individually to the cells.

Data set [2] concerns A2780/CP70 cells. Put plainly: MTT cytotoxicity assay, A2780/CP70 cells. To be noted: for Combination index (CI), carboplatin + CBD: A2780/CP70, 100 nM CBD; for Combination index (CI), carboplatin + CBG: A2780/CP70, 100 nM CBG. The method, then: as §1, §2, §3, §4
Data set [3] relates to A2780 cells. Put plainly: Cell cycle analysis (DAPI, NC-3000), A2780 cells. It is filed as cell-based, human. The settings on record: 48 h. The method, then: (§5) Cells were seeded in T25 flasks at 4 × 10^5 cells per flask and were incubated for 48 h or until they reached confluency. […] After the incubation time elapsed cells were suspended in PBS with a density closer to 1 × 10^6cells/mL. The cells were washed twice with 1× PBS before the addition of 250 μL of lysis buffer (solution 10) supplemented with 10 μg/mL DAPI (solution 12) was added to the samples and incubated for 5 min at 37°C. After incubation, 250 μL of stabilization buffer (solution 11) was added. 12.5 μL of samples were loaded on to an A‐8 slide and were analyzed using the NC‐3000 system.

The subject of data set [4] is A2780/CP70 cells. Put plainly: Cell cycle analysis (DAPI, NC-3000), A2780/CP70 cells. The format is cell-based, human. To be noted: 48 h. The method, then: as §5
The test system of data set [5] is A2780 cells. Description: Mitochondrial membrane potential assay (JC-1), A2780 cells. The settings on record: A2780, 10-50 μM, 24 h, dose-dependent. It is filed as cell-based, human. The method, then:
(§6) The mitochondrial membrane potential assay was performed to detect the loss in mitochondrial potential (de‐polarization), which is a vital step in apoptosis.[36] Cells were seeded in T25 flasks at 4 × 10^5 cells per flask and were incubated for 48 h or until they reached confluency. After the incubation time elapsed, drugs at concentrations of 10, 30, and 50 μM or vehicle were added to the flasks and further incubated for 24 h. After 24 h elapsed, the cells were harvested and suspended in PBS. Cell viability and number were determined by the cell viability assay using via1 cassettes on NC‐3000 system. The samples were diluted in PBS to 1 × 10^6 cells/mL and 2.5 μg/mL of JC‐1 dye was added to each sample. JC‐1 is a […] dye, which stains as fluorescent red as it aggregates in the mitochondrial matrix. In the absence of mitochondrial membrane potential, JC‐1 localizes in the cytosol in its fluorescent green form. Following the addition of JC‐1, the cells were incubated for 10–30 min at 37°C. […] 12.5 μL of samples were loaded on to an A‐8 slide and were analyzed using the NC‐3000 image cytometry. The degree of apoptosis (in proportional to the loss in mitochondrial membrane potential) was measured using a scatter plot of JC‐1 red fluorescence versus JC‐1 green fluorescence.

Data set [6] has as its system A2780/CP70 cells. Description: Mitochondrial membrane potential assay (JC-1), A2780/CP70 cells. It is filed as cell-based, human. The settings on record: A2780/CP70, 10-50 μM, 24 h, dose-dependent. As to the method:
as §6

In data set [7] the test system is caspase 3/7 activity in A2780 cells. Put plainly: Caspase 3/7 assay, A2780 cells. The format is cell-based, human. To be noted: A2780, 24 h contact time, dose-dependent, significant above 10 μM. The method, then: (§7) Sensolyte homogenous caspase 3/7 assay kit was used to determine the caspase activity in ovarian cancer cells when treated with CBG. Cells were seeded in 96‐well plate at 6 × 10^3 cells per well and were incubated for 24 h. CBG was added in concentrations of 10, 20, 30, and 50 μM and incubated for a further 24 h. After the incubation time elapsed, the media was removed and replaced with 150 μL/well of fresh complete media. Caspase 3/7 solution was prepared by diluting the caspase substrate 1:100 with DTT‐containing assay buffer. 50 μL/well caspase substrate was added to the plates, and the cells were incubated for 30 min. Ac‐DEVD‐AMC serves as the fluorogenic indicator for assaying caspase‐3/7 activity. Ac‐DEVD‐AMC generates the AMC fluorophore in the presence of caspase 3/7, which produces bright blue fluorescence. The fluorescence was measured by the FLOUstar OPTIMA plate reader with the excitation at 354 nm and emission at 442 nm.
(§8) The level of caspase 3/7 was also determined using Apotox‐Glo Triple assay. Cells were seeded and drugs were added as described above in Section 2.6.1. After 24 h incubation, caspase 3/7 reagent was prepared by mixing caspase buffer and substrate and 100 μL of reagent was added to each well for 30 min incubation at room temperature. […] The luminescence was measured by the FLOUstar OPTIMA plate reader.

Data set [8] concerns caspase 3/7 activity in A2780/CP70 cells. Description: Caspase 3/7 assay, A2780/CP70 cells. It is filed as cell-based, human. To be noted: A2780/CP70, 24 h contact time, dose-dependent, significant above 10 μM. The method, then:
as §7, §8

For data set [9] the following is noted: high doses such as 1500 mg/day; cited from earlier work.
Data set [10] is described as follows: MTT cytotoxicity assay, non-cancer PNT2 cells. To be noted: human, PNT2 normal prostate epithelial cells.
Description: (§9) Human ovarian carcinoma cells, A2780 (sensitive to chemotherapeutics), A2780/CP70 (resistant to chemotherapeutics), and non‐cancerous cells including PNT2 (normal prostate epithelial cell line), and/or ARPE19 (human retinal pigment cell line) were maintained according to the ATCC and ECACC guidelines.
(§10) In vitro chemosensitivity assays were performed using the MTT assay as previously described.[32], [33] Briefly, at 70% confluency, cells were seeded in 96‐well plates at a density of 2000 cells/well. […] After the allocated contact time had elapsed, the media was removed and 0.5% (w/v) MTT solution diluted in complete media (200 μL) was added to each well. Following a 4 h incubation, the supernatants were removed, and the formazan crystals were dissolved in dimethylsulfoxide (150 μL). The absorbance was read at 540 nm on a Tecan Infinite 50 plate UV reader.
Data set [11] can be described thus: MTT cytotoxicity assay, non-cancer ARPE19 cells. The settings on record: human, ARPE19 non-cancer retinal pigment cells.
Description: as §9, §10

Structures are written as SMILES. Several values for one entry are separate records, joined by “and”; a condition that tells them apart may be missing. Identical values can stand only once. Like-named read-outs stand apart in the source and are kept apart here. Where only a bound is given, the exact number is not on record here.

On to `C=C(C)[C@@H]1CCC(C)=C[C@H]1c1c(O)cc(CCCCC)cc1O` [CBD, cannabidiol], for which the IC50 in data set [1] (Homo sapiens, A2780, 24 h, read-out: IC50 cytotoxicity) is 12.3 ± 0.7 µM; in [1] (Homo sapiens, A2780, 48 h, read-out: IC50 cytotoxicity), 6.8 ± 1.1 µM; in data set [1] (Homo sapiens, A2780, 72 h, read-out: IC50 cytotoxicity), 4.5 ± 0.1 µM; in data set [1] (Homo sapiens, A2780, 96 h, read-out: IC50 cytotoxicity), 3.5 ± 0.2 µM; in [2] (Homo sapiens, A2780/CP70, 24 h, read-out: IC50 cytotoxicity) it was 16.1 ± 0.6 µM; in data set [2] (Homo sapiens, A2780/CP70, 48 h, read-out: IC50 cytotoxicity), 11.2 ± 0.7 µM. Also, the IC50 was determined as 7.3 ± 0.4 µM in data set [2] (Homo sapiens, A2780/CP70, 72 h, read-out: IC50 cytotoxicity) and 5.8 ± 0.8 µM in data set [2] (Homo sapiens, A2780/CP70, 96 h, read-out: IC50 cytotoxicity). Further, the Cytotoxicity result in [1] (human) was “approximately 90%”. In data set [2], the Selectivity index was 1.57 and 1.28 and 1.78 and 2.02 and 2.49 and 1.52 and 2.35 and 2.48. For the same molecule, the “Cells in G0/G1 phase” value in data set [3] (A2780, 10 μM) is reported as 81.4 ± 1.3%; in data set [3] (A2780, 30 μM), 85 ± 1.5%; in data set [3] (A2780, 50 μM) it was 61.6 ± 1.4%; in [4] (A2780/CP70, 10 μM) it was 77.4 ± 1.3%; in data set [4] (A2780/CP70, 30 μM) it was 85.1 ± 1.1%; in data set [4] (A2780/CP70, 50 μM), 64.9 ± 0.9%. Moreover, the “Cells in S phase” value in data set [3] (A2780, 30 μM) was 6 ± 1.5%. Also, the “Cells in subG1 phase” value is listed as 11.1 ± 1.0% in data set [3] (A2780, 50 μM) and 6 ± 0.9% in [4] (A2780/CP70, 50 μM). In addition, the “Percentage of apoptotic cells (loss of mitochondrial membrane potential)” value in [5] and in [6] was “induced an increase in the percentage of apoptotic cells” in each case. The “Caspase 3/7 activity” value in [7] and in data set [8] was “increased the caspase 3/7 activity” throughout. Further, the Tolerability in humans entry in data set [9] was “well tolerated”. Also, the 50% inhibitory concentration (IC50) at 24 h in data set [10] is 40.6 ± 2.3 µM; in [11] it was 25.3 ± 1.8 µM. The IC50 at 48 h worked out at 17.7 ± 2.4 µM in data set [10] and 14.4 ± 0.9 µM in data set [11]. Besides, the IC50 at 72 h in data set [10] turned out to be 17.2 ± 0.6 µM; in [11] it was 13 µM. For the same molecule, the IC50 at 96 h was 14.4 ± 1.6 µM in [10] and 11.7 ± 1.2 µM in [11].

On to `Cc1c(C)c2c(c(C)c1O)CC[C@@](C)(CCC[C@H](C)CCC[C@H](C)CCCC(C)C)O2` [α‐tocopherol], for which the “Effect on viability of the cells when used alone” value in [1] (alone up to 100 μM, preliminary experiments, cell line not named (A2780 and A2780/CP70 tested)) is on record as “did not compromise the viability of the cells”.

As to `N.N.O=C([O-])C1(C(=O)[O-])CCC1.[Pt+2]` [carboplatin], the “Combination index (CI), carboplatin + CBD” value in [1] (24 h, at 50% cytotoxicity) is given as 0.36; in data set [1] (48 h, at 50% cytotoxicity), 0.17; in data set [1] (72 h, at 50% cytotoxicity), 0.15; in data set [1] (96 h, at 50% cytotoxicity) it was 0.096; in data set [2] (24 h), 0.85; in data set [2] (48 h), 0.78. The “Combination index (CI), carboplatin + CBD” value in data set [2] (72 h) is reported as 0.8; in data set [2] (96 h), 0.57. Moreover, the “Combination index (CI), carboplatin + CBG” value in [1] (A2780, 100 nM CBG, 96 h, at 50% cytotoxicity) came out at 0.55; in [2] (48 h), 0.78; in [2] (72 h), 0.71; in data set [2] (96 h), 0.65. Moreover, the IC50 in [1] (read-out: IC50 cytotoxicity, recovery, A2780, 24 h exposure then drug washed out, MTT at 96 h) is 7.9 ± 0.5 µM; in [1] (read-out: IC50 cytotoxicity, recovery, A2780, 48 h exposure then drug washed out, MTT at 96 h) it was 4.7 ± 0.2 µM; in [1] (read-out: IC50 cytotoxicity, recovery, A2780, 48 h exposure then drug washed out, MTT at 96 h, listed as Carboplatin), 4.8 ± 0.2 µM; in [1] (read-out: IC50 cytotoxicity, recovery, A2780, 72 h exposure then drug washed out, MTT at 96 h) it was 2.6 ± 0.5 µM; in data set [1] (read-out: IC50 cytotoxicity, A2780, 24 h contact time, MTT), > 100 µM; in data set [1] (read-out: IC50 cytotoxicity, A2780, 48 h contact time, MTT) it was 17.3 ± 0.6 µM. In addition, the 50% inhibitory concentration (IC50) in [1] (read-out: IC50 cytotoxicity, A2780, 72 h contact time, MTT) was 4.3 ± 0.7 µM; in data set [1] (read-out: IC50 cytotoxicity, A2780, 96 h contact time, MTT) it was 2.57 µM and 2.5 µM and 2.6 µM; in data set [1] (read-out: IC50 cytotoxicity, A2780, 96 h contact time, MTT, listed as Carboplatin) it was 2.6 ± 0.3 µM; in data set [2] (read-out: IC50 cytotoxicity, recovery, A2780/CP70, 24 h exposure then drug washed out, MTT at 96 h) it was 66.5 ± 3.4 µM; in [2] (read-out: IC50 cytotoxicity, recovery, A2780/CP70, 48 h exposure then drug washed out, MTT at 96 h) it was 48.7 ± 0.4 µM; in data set [2] (read-out: IC50 cytotoxicity, recovery, A2780/CP70, 72 h exposure then drug washed out, MTT at 96 h), 45.5 ± 2.6 µM. Also, the concentration for half-maximal inhibition (IC50) in data set [2] (read-out: IC50 cytotoxicity, A2780/CP70, 24 h contact time, MTT) was > 100 µM; in data set [2] (read-out: IC50 cytotoxicity, A2780/CP70, 48 h contact time, MTT), > 100 µM; in [2] (read-out: IC50 cytotoxicity, A2780/CP70, 72 h contact time, MTT), 48 ± 1.9 µM; in [2] (read-out: IC50 cytotoxicity, A2780/CP70, 96 h contact time, MTT), 44.9 ± 3.5 µM.

For `COc1ccc(C(=O)c2c(C)n(CCN3CCOCC3)c3cc(I)ccc23)cc1` [AM630], the “Concentrations at which the antagonist alone induced cytotoxicity” value in [1] (A2780, antagonist alone) is given as “higher than 1 μM”; in data set [2] (A2780/CP70, antagonist alone), “higher than 1 μM”.

The record behind these values is PMC10723784, “Investigation of the cytotoxicity induced by cannabinoids on human ovarian carcinoma cells” (Pharmacology Research & Perspectives, 2023).
